Measured values published in patent US20110046224A1, “METHODS TO ACCELERATE MUSCLE DEVELOPMENT, DECREASE FAT DEPOSITS, AND ENHANCE FEEDING EFFICIENCY IN PIGS” (BIOKAB, S.A. de C.V., priority 2009, published 2011).

Key:
[1] = tested on: pigs for meat supply; experiment: Production characteristics of finishing pigs fed supplemented food (weight, weight gain, food intake, food conversion); type: in vivo, York-Landrace (YL) x Duroc (DC); conditions: for DAILY GAIN / WEIGHT GAIN / FINAL WEIGHT / AVERAGE INTAKE / TOTAL INTAKE: mean and standard deviation; for AVERAGE INTAKE: daily average food intake; for CONVERSION: food conversion; for TOTAL INTAKE: food intake
Description: (§1) 30 pigs were used, 15 castrated males and 15 females obtained from a terminal breeding York-Landrace (YL)×Duroc (DC); at the beginning of the study, said pigs weighted 77.83±1.20 Kg and were approximately 18 weeks old. Pigs were kept in individual pens, and were randomly distributed to 3 treatments, with ten repetitions per treatment. Treatments were: a positive control, including 5 ppm of commercial ractopamine; a second treatment including 12 ppm of pure ferulic acid and a third treatment containing 15 ppm of substantially pure ferulic acid per ton of food. Pigs were weighted every seven days, studying the following variables: initial weight, weekly weight, and final weight of the pigs; daily food intake. This was used to estimate the daily, weekly and term weight gain, as well as food efficiency. When reaching the approximate weight of 100 kg, animals were evaluated in vivo (using Piglot 105, SFK-Technology, Netherlands) in order to estimate the amount of body fat and lean efficiency. Results were evaluated randomly, using SAS general linear models procedures.

[2] = tested on: pigs for meat supply; experiment: Carcass quality of pigs fed supplemented food (body fat and lean efficiency estimated in vivo with Piglot 105); parameters: species or system York-Landrace (YL) x Duroc (DC); conditions: for Average fat / LEAN EFFICIENCY: at approx. 100 kg, mean and standard deviation
Description: as §1

[3] = tested on: pigs for meat supply; experiment: Production characteristics of finishing pigs fed supplemented food (weight, weight gain, food intake, food conversion); type: in vivo, York-Landrace (YL) x Duroc (DC); conditions: supplemented pigs vs untreated control group

COc1cc(/C=C/C(=O)O)ccc1O [Substantially pure ferulic acid, trans-ferulic acid]
DAILY GAIN ([1]; 15 ppm in food): 1.04 ± .20 kg
WEIGHT GAIN ([1]; 15 ppm in food): 29.25 ± 5.70 kg
FINAL WEIGHT ([1]; 15 ppm substantially pure ferulic acid in food, start 78.2 Kg): 107.47 ± 6.84 kg
AVERAGE INTAKE ([1]; 15 ppm in food): 2.30 ± .26 kg
CONVERSION ([1]; 15 ppm in food): 2.21
TOTAL INTAKE ([1]; 15 ppm in food): 80.57 ± 8.13 kg
CARCASS EFFICIENCY ([2]; 15 ppm in food): 89.26%
EFFICIENCY IN CUTS ([2]; 15 ppm in food): 50.88%
Average fat ([2]; 15 ppm in food): 9.60 ± .34 mm
LEAN EFFICIENCY ([2]; 15 ppm in food): 59.66 ± 3.14%

COc1cc(/C=C/C(=O)O)ccc1O [Pure ferulic acid, trans-4-hydroxy-3-methoxy cinnamic acid]
DAILY GAIN ([1]; 12 ppm in food): 0.873 ± .20 kg
WEIGHT GAIN ([1]; 12 ppm in food): 24.45 ± 5.64 kg
FINAL WEIGHT ([1]; 12 ppm pure ferulic acid in food, start 79.4 Kg): 103.85 ± 7.63 kg
AVERAGE INTAKE ([1]; 12 ppm in food): 2.34 ± .40 kg
CONVERSION ([1]; 12 ppm in food): 2.68
TOTAL INTAKE ([1]; 12 ppm in food): 81.75 ± 14.00 kg
CARCASS EFFICIENCY ([2]; 12 ppm in food): 88.01%
EFFICIENCY IN CUTS ([2]; 12 ppm in food): 49.66%
Average fat ([2]; 12 ppm in food): 13.5 ± 3.58 mm
LEAN EFFICIENCY ([2]; 12 ppm in food): 56.24 ± 3.58%

CC(CCc1ccc(O)cc1)NCC(O)c1ccc(O)cc1 (stereo not shown) [Ractopamine, ractopamine, reference compound]
FINAL WEIGHT ([1]; 5 ppm commercial ractopamine in food, start 77.33 Kg): 105.28 ± 4.98 kg
DAILY GAIN ([1]; 5 ppm in food): 1.00 ± .08 kg
WEIGHT GAIN ([1]; 5 ppm in food): 27.94 ± 3.20 kg
AVERAGE INTAKE ([1]; 5 ppm in food): 2.35 ± .33 kg
CONVERSION ([1]; 5 ppm in food): 2.32
TOTAL INTAKE ([1]; 5 ppm in food): 82.33 ± 11.31 kg
intake of total food and daily average compared to the control group (untreated) [3]: lower intake
CARCASS EFFICIENCY ([2]; 5 ppm in food): 87.08%
EFFICIENCY IN CUTS ([2]; 5 ppm in food): 51.69%
Average fat ([2]; 5 ppm in food): 9.67 ± 1.11 mm
LEAN EFFICIENCY ([2]; 5 ppm in food): 58.98 ± 2.20%

COc1cc(/C=C/C(=O)O)ccc1O [ferulic acid]
intake of total food and daily average compared to the control group (untreated) [3]: lower intake
amount of dorsal fat (in words) ([2]; pigs fed with 15 ppm): lower amount of dorsal fat
lean efficiency (in words) ([2]; pigs fed with 15 ppm): better lean efficiency
